PMC3983375 (Journal of Medicinal Chemistry, 2014)

Tests used:
[1] = molecular target: USP2 (Homo sapiens, UniProt O75604); experiment: biochemical
[2] = molecular target: USP7 (Homo sapiens, UniProt Q93009); experiment: biochemical
[3] = molecular target: DEN1 (Homo sapiens, UniProt Q96LD8); experiment: biochemical
[4] = molecular target: UCHL1 (Homo sapiens, UniProt P09936); experiment: biochemical
[5] = molecular target: caspase 3 (Homo sapiens, UniProt P42574); experiment: biochemical
[6] = molecular target: cathepsin K (Homo sapiens, UniProt P43235); experiment: biochemical
Sequence of cathepsin K (P43235 115-329): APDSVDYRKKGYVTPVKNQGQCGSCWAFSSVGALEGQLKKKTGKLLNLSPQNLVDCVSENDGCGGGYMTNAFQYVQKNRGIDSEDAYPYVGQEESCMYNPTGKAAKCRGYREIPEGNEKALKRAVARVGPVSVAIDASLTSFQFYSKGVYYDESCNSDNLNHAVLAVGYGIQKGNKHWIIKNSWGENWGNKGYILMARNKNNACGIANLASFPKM

[7] = test system: SARS-CoV infected Vero E6 cells; type: cell-based
[8] = molecular target: USP20 (Homo sapiens, UniProt Q9Y2K6); experiment: biochemical
Sequence of USP20 (Q9Y2K6 whole entry): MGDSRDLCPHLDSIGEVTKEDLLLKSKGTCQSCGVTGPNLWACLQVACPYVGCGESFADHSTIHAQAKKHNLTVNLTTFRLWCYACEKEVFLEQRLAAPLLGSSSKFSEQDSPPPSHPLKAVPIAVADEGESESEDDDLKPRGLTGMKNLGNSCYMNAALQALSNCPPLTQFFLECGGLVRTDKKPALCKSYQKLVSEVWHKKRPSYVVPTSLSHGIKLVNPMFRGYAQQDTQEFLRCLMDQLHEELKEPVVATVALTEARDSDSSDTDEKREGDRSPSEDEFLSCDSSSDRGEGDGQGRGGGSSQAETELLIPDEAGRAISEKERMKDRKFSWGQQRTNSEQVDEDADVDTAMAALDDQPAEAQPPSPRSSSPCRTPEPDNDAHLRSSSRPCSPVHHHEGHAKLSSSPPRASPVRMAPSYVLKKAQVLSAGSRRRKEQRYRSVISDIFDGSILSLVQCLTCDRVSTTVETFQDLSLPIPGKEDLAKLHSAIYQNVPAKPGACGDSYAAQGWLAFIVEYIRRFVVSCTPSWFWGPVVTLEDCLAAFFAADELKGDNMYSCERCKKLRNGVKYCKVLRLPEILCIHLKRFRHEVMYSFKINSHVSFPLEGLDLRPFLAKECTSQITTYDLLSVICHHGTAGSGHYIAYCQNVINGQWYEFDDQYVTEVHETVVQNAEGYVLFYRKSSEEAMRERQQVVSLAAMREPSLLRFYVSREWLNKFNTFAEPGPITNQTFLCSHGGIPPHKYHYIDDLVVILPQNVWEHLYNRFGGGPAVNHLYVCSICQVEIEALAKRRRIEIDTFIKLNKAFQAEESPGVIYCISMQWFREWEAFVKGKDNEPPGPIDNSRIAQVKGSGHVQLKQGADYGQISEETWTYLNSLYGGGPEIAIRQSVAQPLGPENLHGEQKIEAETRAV

[9] = test system: SARS-CoV infected Vero E6 cells; conditions: read-out: EC50 (SARS-CoV antiviral); cited from earlier work
[10] = mouse

Sequence of DEN1 (Q96LD8 whole entry): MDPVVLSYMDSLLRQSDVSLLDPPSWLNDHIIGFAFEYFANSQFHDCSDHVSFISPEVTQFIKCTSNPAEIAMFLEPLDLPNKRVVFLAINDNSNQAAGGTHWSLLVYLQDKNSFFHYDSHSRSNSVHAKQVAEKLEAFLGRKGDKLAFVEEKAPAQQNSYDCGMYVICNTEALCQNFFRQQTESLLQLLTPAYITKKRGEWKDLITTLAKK
Sequence of UCHL1 (P09936 whole entry): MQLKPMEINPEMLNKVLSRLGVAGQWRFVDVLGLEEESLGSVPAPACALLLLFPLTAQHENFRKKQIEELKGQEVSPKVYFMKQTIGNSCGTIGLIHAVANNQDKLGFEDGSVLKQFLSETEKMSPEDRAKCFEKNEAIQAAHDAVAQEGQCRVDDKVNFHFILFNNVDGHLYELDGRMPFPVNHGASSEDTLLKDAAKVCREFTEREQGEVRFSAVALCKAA
Sequence of USP7 (Q93009 whole entry): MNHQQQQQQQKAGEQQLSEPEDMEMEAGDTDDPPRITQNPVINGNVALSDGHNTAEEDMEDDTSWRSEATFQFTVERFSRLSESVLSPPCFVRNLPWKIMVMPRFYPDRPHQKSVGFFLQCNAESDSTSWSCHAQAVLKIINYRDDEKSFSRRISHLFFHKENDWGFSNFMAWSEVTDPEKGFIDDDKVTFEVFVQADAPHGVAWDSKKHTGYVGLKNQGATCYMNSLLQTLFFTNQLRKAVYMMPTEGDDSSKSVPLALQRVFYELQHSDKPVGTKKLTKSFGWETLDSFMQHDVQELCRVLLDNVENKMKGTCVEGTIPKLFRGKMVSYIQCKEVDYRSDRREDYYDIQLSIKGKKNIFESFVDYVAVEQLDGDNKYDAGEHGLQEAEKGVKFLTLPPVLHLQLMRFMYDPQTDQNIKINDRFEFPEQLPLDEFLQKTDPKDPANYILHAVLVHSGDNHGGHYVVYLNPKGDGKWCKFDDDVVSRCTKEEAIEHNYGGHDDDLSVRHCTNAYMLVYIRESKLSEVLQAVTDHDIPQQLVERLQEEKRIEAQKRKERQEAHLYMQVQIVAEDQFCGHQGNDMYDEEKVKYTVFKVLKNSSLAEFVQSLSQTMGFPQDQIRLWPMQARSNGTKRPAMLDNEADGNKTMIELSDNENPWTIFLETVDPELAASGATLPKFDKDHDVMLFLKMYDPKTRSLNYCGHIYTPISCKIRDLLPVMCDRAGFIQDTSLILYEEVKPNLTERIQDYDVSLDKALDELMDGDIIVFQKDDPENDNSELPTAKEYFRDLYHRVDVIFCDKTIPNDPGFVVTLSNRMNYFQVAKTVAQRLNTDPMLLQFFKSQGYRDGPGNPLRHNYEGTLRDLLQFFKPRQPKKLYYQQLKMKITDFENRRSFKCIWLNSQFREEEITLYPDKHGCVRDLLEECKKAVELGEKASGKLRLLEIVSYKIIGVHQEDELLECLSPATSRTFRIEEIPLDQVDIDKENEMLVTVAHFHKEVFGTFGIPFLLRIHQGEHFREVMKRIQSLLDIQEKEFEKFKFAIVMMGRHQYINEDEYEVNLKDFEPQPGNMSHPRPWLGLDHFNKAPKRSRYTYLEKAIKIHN
Sequence of caspase 3 (P42574 29-175): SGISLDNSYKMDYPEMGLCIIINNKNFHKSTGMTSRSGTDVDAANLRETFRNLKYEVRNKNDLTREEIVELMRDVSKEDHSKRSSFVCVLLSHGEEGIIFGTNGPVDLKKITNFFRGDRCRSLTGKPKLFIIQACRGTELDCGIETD
Sequence of caspase 3 (P42574 176-277): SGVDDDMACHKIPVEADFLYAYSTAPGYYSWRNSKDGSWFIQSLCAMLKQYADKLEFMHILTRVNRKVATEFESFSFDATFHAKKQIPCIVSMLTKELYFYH
Sequence of USP2 (O75604 whole entry): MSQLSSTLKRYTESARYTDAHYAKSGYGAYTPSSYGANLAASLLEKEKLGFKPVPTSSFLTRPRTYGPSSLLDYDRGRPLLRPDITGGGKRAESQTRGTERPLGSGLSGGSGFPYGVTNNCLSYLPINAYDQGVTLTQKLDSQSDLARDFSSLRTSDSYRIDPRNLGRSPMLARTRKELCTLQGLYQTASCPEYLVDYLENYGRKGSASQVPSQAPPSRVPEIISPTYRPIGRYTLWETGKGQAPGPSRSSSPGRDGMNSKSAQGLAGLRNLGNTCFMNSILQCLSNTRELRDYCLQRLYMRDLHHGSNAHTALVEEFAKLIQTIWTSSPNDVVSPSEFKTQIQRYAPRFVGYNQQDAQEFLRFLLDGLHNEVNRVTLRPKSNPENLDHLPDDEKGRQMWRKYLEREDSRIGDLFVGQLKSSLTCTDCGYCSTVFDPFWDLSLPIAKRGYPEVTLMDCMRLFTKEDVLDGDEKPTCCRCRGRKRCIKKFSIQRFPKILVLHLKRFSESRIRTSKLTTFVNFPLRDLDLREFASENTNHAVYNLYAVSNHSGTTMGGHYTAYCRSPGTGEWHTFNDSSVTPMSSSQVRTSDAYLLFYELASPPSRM

SMILES	IC50 [1]	IC50 [2]	IC50 [3]	IC50 [4]	IC50 [5]	IC50 [6]	improvement in antiviral activity compared to 15g [7]	IC50 [8]	EC50 [9]	half-life longer than that of 15g [10]
C[C@H](c1cccc2ccccc12)N1CCC(C(=O)NCc2cccc(F)c2)CC1 [3k, (R)-N-(3-Fluorobenzyl)-1-(1-(naphthalen-1-yl)ethyl)piperidine-4-carboxamide]	> 100 µM	> 100 µM	> 100 µM	> 100 µM	> 100 µM	> 100 µM	2 fold	–	–	–
C[C@H](c1cccc2ccccc12)N1CCC(C(=O)NCc2ccc(F)cc2)CC1 [3j, (R)-N-(4-Fluorobenzyl)-1-(1-(naphthalen-1-yl)ethyl)piperidine-4-carboxamide]	> 100 µM	> 100 µM	> 100 µM	> 100 µM	> 100 µM	> 100 µM	–	–	–	–
C[C@H](c1cccc2ccccc12)N1CCC(C(=O)NCc2ccc3c(c2)OCO3)CC1 [15g, reference compound]	> 100 µM	> 100 µM	> 100 µM	> 100 µM	> 100 µM	> 100 µM	–	> 100 µM	9.1 µM	–
COc1cc(CNC(=O)C2CCN([C@H](C)c3cccc4ccccc34)CC2)ccn1 [5c, (R)-N-((2-Methoxypyridin-4-yl)methyl)-1-(1-(naphthalen-1-yl)ethyl)piperidine-4-carboxamide]	–	–	–	–	–	–	–	–	–	4-5 fold
CC(=O)Nc1cccc(CNC(=O)C2CCN([C@H](C)c3cccc4ccccc34)CC2)c1 [3e, (R)-N-(3-Acetamidobenzyl)-1-(1-(naphthalen-1-yl)ethyl)piperidine-4-carboxamide]	–	–	> 100 µM	> 100 µM	> 100 µM	> 100 µM	–	–	–	4-5 fold
